Test results from patent US6043373A, “Heterocycle-fused thiazole derivatives” (Yungjin Pharmaceutical Co., Ltd., priority 1995, dated 2000).

Legend:
[1] = biological target: T1, H^+ /K^+ ATPase (Oryctolagus cuniculus, UniProt P27112); assay: Inhibition of H^+ /K^+ ATPase (vesicles from gastric mucose membrane of rabbit); assay type: biochemical; conditions: pH 7.4, 37° C., 30 minutes preincubation, 15 minutes incubation; read-out: Enzyme Inhibition (IC50)
T1 construct: from tissue; host or cells: rabbit gastric mucosa, membrane vesicles (differential and Ficoll density gradient centrifugation)
T1 sequence (P27112 2-1035 limits assumed): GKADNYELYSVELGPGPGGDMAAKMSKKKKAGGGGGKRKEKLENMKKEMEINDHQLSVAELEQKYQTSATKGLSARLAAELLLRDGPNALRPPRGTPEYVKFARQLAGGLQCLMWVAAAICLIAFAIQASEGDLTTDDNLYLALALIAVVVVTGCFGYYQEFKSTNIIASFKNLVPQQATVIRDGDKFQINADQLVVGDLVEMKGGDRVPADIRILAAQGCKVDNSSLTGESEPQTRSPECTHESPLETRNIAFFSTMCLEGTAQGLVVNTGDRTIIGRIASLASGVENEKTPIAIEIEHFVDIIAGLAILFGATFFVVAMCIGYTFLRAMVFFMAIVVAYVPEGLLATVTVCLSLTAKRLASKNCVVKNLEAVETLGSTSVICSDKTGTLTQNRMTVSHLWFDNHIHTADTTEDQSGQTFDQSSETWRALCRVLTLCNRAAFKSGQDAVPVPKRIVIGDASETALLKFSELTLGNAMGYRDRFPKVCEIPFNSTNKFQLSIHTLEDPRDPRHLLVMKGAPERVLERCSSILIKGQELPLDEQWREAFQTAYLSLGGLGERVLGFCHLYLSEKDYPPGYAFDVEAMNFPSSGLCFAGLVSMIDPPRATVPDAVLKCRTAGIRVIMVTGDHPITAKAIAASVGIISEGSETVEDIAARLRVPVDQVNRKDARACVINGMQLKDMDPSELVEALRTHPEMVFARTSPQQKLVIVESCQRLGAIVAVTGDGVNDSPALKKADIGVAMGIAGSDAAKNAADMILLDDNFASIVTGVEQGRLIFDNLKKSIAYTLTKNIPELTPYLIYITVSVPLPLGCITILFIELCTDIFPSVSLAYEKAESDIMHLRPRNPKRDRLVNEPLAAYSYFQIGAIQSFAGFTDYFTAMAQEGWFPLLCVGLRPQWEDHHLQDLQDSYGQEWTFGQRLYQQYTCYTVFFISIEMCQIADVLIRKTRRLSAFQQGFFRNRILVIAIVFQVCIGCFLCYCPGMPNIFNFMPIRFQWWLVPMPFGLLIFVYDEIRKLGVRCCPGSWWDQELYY
T1 sequence (P18597 whole entry partner): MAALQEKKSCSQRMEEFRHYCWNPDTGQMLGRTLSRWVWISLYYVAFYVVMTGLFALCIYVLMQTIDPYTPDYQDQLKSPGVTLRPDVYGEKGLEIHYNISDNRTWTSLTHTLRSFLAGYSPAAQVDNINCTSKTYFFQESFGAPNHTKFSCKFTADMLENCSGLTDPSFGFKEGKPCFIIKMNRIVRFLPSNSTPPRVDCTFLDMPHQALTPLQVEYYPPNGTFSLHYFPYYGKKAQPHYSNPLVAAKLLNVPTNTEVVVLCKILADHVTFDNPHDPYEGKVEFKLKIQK
Protocol: Inhibition of H^+ /K^+ ATPase, a proton carrying enzyme, was measured by following the procedure of Saccomani et al. [Biochim. Biophy. Acta., 465, 311-330 (1977)]. Thus, a homogenate of the gastric mucose membrane of rabbit was used to prepare vesicles containing H^+ /K^+ ATPase by employing differential centrifugation and discontinuous density gradient centrifugation in Ficoll. The vesicles containing the enzyme were preincubated in a solution (0.5 ml) containing 1×10^-4 M, 1×10^-5 M, 1×10^-6 M, or 1×10^-7 M of the inventive compound (Example 21) and 5 mM of imidazole buffer (pH 7.4) at a temperature of about 37° C. for about 30 minutes. omeprazole was used as a control. A solution containing 2 mM of magnesium chloride, 40 mM of imidazole buffer (pH 7.4), 10 mM of potassium chloride and 10 mM of ATP was added to the mixture. The resulting mixture was incubated at 37° C. for 15 minutes and the reaction was terminated by adding 1 ml of ice-cold 22% solution of trichloroacetic acid. Enzyme activity was calculated by measuring the separated inorganic phosphate by following the method of Fiske and Subbarow [J. Biol. Chem., 66, 375-440 (1925)].

[2] = system: Gastric Secretion; assay: Inhibition of gastric secretion (Shay pylorus ligation); assay type: in vivo, male Sprague-Dawley rats; conditions: rat, intraduodenal
Protocol: Inhibition of gastric secretion was measured by following the procedure of Shay ligation (Gastroenterology, 1954, 26, 903). Thus, male Sprague-Dawleyrats weighing 180-200 g were starved for 24 hours and their pylorus were ligated. Then, the inventive compounds (Examples 1, 13 and 17) or omeprazole as a positive control was administered into duodenum. Four hours later, the stomach was removed, and the acidity and amount of gastric juice were measured. By comparing the measured values with the acidity and amount of the gastric juice of the stomach of the reference group to which no test compound was administered, the inhibition of gastric secretion was calculated.

[3] = system: Acetic Acid-Induced Ulcer; assay: Inhibition of Acetic Acid-Induced Ulcer (healing); assay type: in vivo, male Sprague-Dawley rats; conditions: rat, oral, 30 mg/kg, for 10 days
Protocol: Inhibition activity of the inventive compound on-the acetic acid-induced ulcer was evaluated by using male Sprague-Dawley rats. Thus, rats were starved for 5 hours prior to carrying out the experiment.
20 Microliter of 30% acetic acid was injected into the submucosal layer of the stomach using a microsyringe to induce a circular ulcer on the stomach. Various doses of the inventive compounds (Examples 1 and 17) or omeprazole as a positive control were orally administered for 10 days, and the healing of ulcer by the action of the test compounds were observed. The percentages of the healing of the ulcer were calculated by comparing them with that of reference group.

[4] = system: Stress-Induced Ulcer; assay: Inhibition of Stress-Induced Ulcer (water immersion); assay type: in vivo, male Sprague-Dawley rats; conditions: rat, oral, 30 minutes prior to immersion in water; read-out: Anti-ulcer activity (ED50), Stress
Protocol: Inhibition activity of the inventive compound on the stress-induced ulcer was evaluated by using male Sprague-Dawley rats. Thus, rats were starved for 24 hours prior to carrying out the experiment. Stress is an important factor for causing gastric lesions, and was applied to rats by immersing them in water. Thirty minutes prior to immersing rats into water, the inventive compounds (Examples 1 and 17) or omeprazole as a positive control was orally administered, and the inhibitions of ulcer by the action of the test compounds were observed.

[5] = system: Ethanol-Induced Lesions; assay: Inhibition of Ethanol-Induced Lesions; assay type: in vivo, male Sprague-Dawley rats; conditions: rat, oral, 30 minutes before absolute ethanol (5 ml/kg); read-out: Anti-ulcer activity (ED50), Ethanol
Protocol: Inhibition activity of the inventive compound on the ethanol-induced ulcer was measured by using male sprague-Dawley rats weighing 180-200 g. Thus, rats were starved for 24 hours, and the inventive compound (Examples 1 and 17) or omeprazole as a positive control was orally administered. Thirty minutes later, absolute ethanol (5 ml/kg was orally administered. 1.5 hours later, the stomach was removed, and the degree of the wound of the stomach was measured. By comparing the measured values with the degree of the lesion of the stomach the reference group to which no test compound was administered, the effective dose (ED50) of the test compounds which inhibit the lesion by 50% were calculated and are shown in Table 3.

[6] = system: Indomethacin-Induced Lesions; assay: Inhibition of Indomethacin-Induced Lesions; assay type: in vivo, male Sprague-Dawley rats; conditions: rat, oral, before 35 mg/kg indomethacin s.c.; read-out: Anti-ulcer activity (ED50), Indomethacin
Protocol: Inhibition activities of the inventive compounds on the indome][…]-induced lesions was measured by using male Sprague-Dawley rats. Thus, rats were starved for 48 hours and prohibited from being supplied with water for 2 hours, and 35 mg/kg of indomethacin (Sigma Co.) as a causative of gastric lesions was subcutaneously administered. Before Indomethacine treatment, the inventive compounds (Examples 1 and 17) or omeprazole as a positive control was orally administered, and the inhibitions of lesions by the action of the test compounds were observed.

[7] = system: Mepirizole-Induced Ulcer; assay: Inhibition of Mepirizole-Induced Ulcer (duodenum); assay type: in vivo, male Sprague-Dawley rats; conditions: rat, oral, 30 minutes before mepirizole (250 mg/kg); read-out: Anti-ulcer activity (ED50), Mepirizole
Protocol: Inhibition activity of the inventive compounds on the mepirizole-induced ulcers was measured by using male Spraque-Dawley rats weighing 200-230 g. Thus, rats were not starved, and the inventive compounds (Examples 1 and 17) or omeprazole as a positive control was orally administered. Thirty minutes later, mepirizole suspended in 1% CMC (250 mg/kg) was orally administered. […], the duodena were removed. The degree of the ulcer thereof was measured. By comparing the measured values with the degree of the ulcer of the duodena of the reference group to which no test compound was administered, the effective deses (ED50) of the test compounds which inhibit the ulcer by 50% were calculated and are shown in Table 3.

Compound	IC50 [1]	Gastric juice Secretion Inhibition (percent) ([2]; 25 mg/kg, 4 hours)	Anti-ulcer activity, Acetic acid: Percentage of healing [3]	ED50 [4]	ED50 [5]	ED50 [6]	ED50 ([2]; 4 hours after pylorus ligation, read-out: Gastric juice Secretion Inhibition (ED50))	ED50 [7]
Br.Br.Nc1nc2c(s1)CCc1c-2sc2nc3ccccc3n12 [Example 13, 2-amino-4,5-dihydrobenzimidazo[2,1-b]thiazolo[5,4-g]benzothiazole dihydrobromide]	200 µM	34.0%	–	–	–	–	–	–
NC(N)=Nc1nc2c(s1)-c1nc(N)sc1CC2 [Example 18]	100 µM	–	–	–	–	–	–	–
COc1ccc2[nH]c([S+]([O-])Cc3ncc(C)c(OC)c3C)nc2c1 (stereo not shown) [Omeprazole, reference compound]	–	–	27.1%	4.4 mg/kg	17.1 mg/kg	1.2 mg/kg	–	2.8 mg/kg

Second part, led by results:

IC50 [1]	Compound	Gastric juice Secretion Inhibition (percent) ([2]; 25 mg/kg, 4 hours)	Anti-ulcer activity, Acetic acid: Percentage of healing [3]	ED50 [4]	ED50 [5]	ED50 [6]	ED50 ([2]; 4 hours after pylorus ligation, read-out: Gastric juice Secretion Inhibition (ED50))	ED50 [7]
21.6 µM	CNc1nc2c(s1)CCc1c-2sc2nc(-c3ccccc3)cn12 [Example 2]	–	–	–	–	–	–	–
49 µM	Nc1nc2c(s1)CCc1nc3ccccn3c1-2 [Example 17, 2-amino-4,5-dihydropyrido[1,2-a]thiazolo [5,4-g]benzimidazole]	–	31.59%	17.6 mg/kg	2.91 mg/kg	4.68 mg/kg	15.4 mg/kg	18.7 mg/kg
